Type in all cases: physicochemical
Series [1] can be described thus: Solid form and hygroscopicity of the salts as obtained (comparative examples). The following applies: for hygroscopicity (in words) / solid form (in words): product as obtained. Here is the method:
(§1) A crude product of ethyl (2R,4S)-5-(biphenyl-4-yl)-4-[(3-carboxypropionyl)amino]-2-methylpentanoate (52.4 g, 0.125 mol) and acetone (629 ml) were added to a 1 L three-necked flask equipped with a mechanical stirrer, stirred and dissolved at room temperature; cooled to 0-10° C. for 5-10 min, added dropwise with potassium hydroxide solution (25 ml, 5 mol/L), after the addition was completed, kept stirring for 1 h, concentrated to dryness, added with methanol (125 ml) or ethanol (125 ml), concentrated to dryness to give potassium 4((2S,4R)-1-([1,1′-biphenyl]-4-yl)-5-ethoxy-4-methyl-5-oxopentan-2-yl)amino)-4-oxobutanoate (AHU-377 potassium salt).
as §1, with “min and” for “min,”, “sodium” for “potassium”, “sodium 4-(((2S,4R)-1-([1,1′-biphenyl]-4-yl)-5-ethoxy-4-methyl-5-oxopentan-2-yl)amino)-4-oxobutyrate” for “potassium 4((2S,4R)-1-([1,1′-biphenyl]-4-yl)-5-ethoxy-4-methyl-5-oxopentan-2-yl)amino)-4-oxobutanoate”
A crude product of ethyl (2R,4S)-5-(biphenyl-4-yl)-4-[(3-carboxypropionyl)amino]-2-methylpentanoate (52.4 g, 0.125 mol) and acetone (629 ml) were added to a 1 L three-necked flask equipped with a mechanical stirrer, stirred and dissolved at room temperature: cooled to 0-10° C. for 5-10 min and added dropwise with a basic ammonium salt such as choline (15 g, 0.125 mol), after the addition was completed, kept stirring for 1 h, concentrated to dryness, added with methanol (125 ml) or ethanol (125 ml), and concentrated to dryness.

The nature of series [2]: Stability comparison test (main peak purity of the samples on storage). The following applies: for decrease of purity: at 25° C. 60 days later. The protocol: Each portion was about 100 mg, placed in a zip-lock bag and added with a desiccant, then three-layer packaged by a two-layer aluminum plastic material with each layer vacuumed, and stored at 25° C. (relative humidity 60%) and 40° C. […] Relevant substances of the samples were respectively determined at 0 day, 30 days, and 60 days later.

Experiment in series [3]: as above
The following applies: at 60° C. 60 days later (so in the source).

Series [4] is described as follows: Water adsorption and desorption test (DVS, hygroscopicity). The following applies: 25° C.; for change of hygroscopicity: under 80% humidity. The protocol:
DVS detection of the ammonium salt: instrument model: TA Q5000SA, balance at 25° C., humidity start from 0.00%, balance for 180 min, balance for 15 min when the weight gain is less than 0.01%, 10% gradient humidity increase from 0.00% to 90.00%, each gradient maintained for 120 min; a 10% gradient humidity reduction procedure performed when the humidity is from 90.00% to 0.00%, each gradient maintained for 120 min.
DVS detection of other products: instrument model: SMS DVS Intrinsic, 0-95% RH, temperature: 25° C.
The water adsorption and desorption tests of the compound (A) of example 1 at 25° C., 0 to 95% relative humidity were carried out by a dynamic water adsorber (DVS) to determine the hygroscopicity of the compound of formula (A).
The water adsorption and desorption experiments of the crystalline form I of the compound of formula (A) prepared by methods of example 3 at 25° C., 0 to 95% relative humidity were carried out by a dynamic water adsorber (DVS) to determine the hygroscopicity of the crystalline form I of the compound of formula (A).
The water adsorption and desorption experiments of the sample of example 6 at 25° C., 0 to 95% relative humidity were carried out by a dynamic water adsorber (DVS) to determine the hygroscopicity of the amorphous form of the compound of formula (A).

Series [5] can be described thus: Drug interaction test: stability of the mixture of crystalline form I of the compound of formula (A) + compound of formula (B). The source says:
The applicant has found through repeated studies in the research of drug compatibility that the compound of formula (A), the crystalline form I, single crystal, amorphous form, crystalline form II thereof have good compatibility with the compound of formula (I) described in CN103709154A. A specific compound of formula (B) was selected to be mixed with the crystalline form I of the compound of formula (A) prepared in example 3 of the present disclosure for further stability studies.

[6] abbreviates: 25° C. (relative humidity 60%), test time 0 day.
The mark [7] stands for this setting: 25° C. (relative humidity 60%), test time 30 days.
Where [8] appears, read: 25° C. (relative humidity 60%), test time 60 days.
Where [9] appears, read: 40° C. (relative humidity 75%), test time 0 day.
Where [10] appears, read: 40° C. (relative humidity 75%), test time 30 days.
Setting [11] is: 40° C. (relative humidity 75%), test time 60 days.

The text below walks through data of patent publication US11161803B2, “Ammonium carboxylate compound, crystalline form, amorphous form and preparation method thereof” (priority 2017, dated 2021).

Structures can show the parent of a compound that is named as a salt.

In the case of `CCOC(=O)[C@H](C)C[C@@H](Cc1ccc(-c2ccccc2)cc1)NC(=O)CCC(=O)O` [organic ammonium salt of 4 ((2S,4R)-1-([1,1′-biphenyl]-4-yl)], in series [1], the “hygroscopicity (in words)” value is “high hygroscopicity” and the “solid form (in words)” value was “cannot be obtained in a solid form”.

For the compound `CCOC(=O)[C@H](C)C[C@@H](Cc1ccc(-c2ccccc2)cc1)NC(=O)CCC(=O)[O-].[Na+]` [AHU-377 sodium salt, sodium 4-(((2S,4R)-1-([1,1′-biphenyl]-4-yl)-5-ethoxy-4-methyl-5-oxopentan-2-yl)amino)-4-oxobutyrate], the main peak purity in series [2] (setting [6]) was determined as 94.12%; in series [2] (setting [7]), 94.16%; in series [2] (setting [8]), 93.75%; in series [2] (setting [9]), 94.12%; in series [2] (setting [10]), 94.06%; in series [2] (setting [11]) it was 93.86%. The values for the decrease of purity in series [2] and in series [3] were 0.37% and 0.26%, respectively. Moreover, the “hygroscopicity (in words)” value in series [1] is listed as “highly hygroscopic despite less hygroscopic than potassium salt”. Moreover, the “solid form (in words)” value in series [1] is “does not exhibit a good solid form”.

On to `CCOC(=O)C(C)CC(Cc1ccc(-c2ccccc2)cc1)NC(=O)CCC(=O)O` (stereo not shown), for which, in series [4] (range of 0 to 95% relative humidity, FIG. 15), the “change of the form in DVS” value was “do not change”.

As to `CCOc1nc2cccc(C(=O)OC(C)OC(=O)OCc3nc(C)c(C)nc3C)c2n1Cc1ccc(-c2ccccc2-c2noc(=O)[n-]2)cc1.[K+]` (stereo not shown) [Formula (B)], in series [5], the “stability of the potassium salt of formula (B) in the mixture with crystalline form I compared with formula (B) as a single component” value is on record as “superior”. Besides, the “Maximum unknown single impurity” value in series [5] (test time 0 day) was 0.05%; in series [5] (test time 30 days), 0.05%; in series [5] (test time 60 days), 0.06%; in series [5] (test time 90 days), 0.04%. The Total impurities came out at 0.72% in series [5] (test time 0 day), 1.29% in series [5] (test time 30 days), 1.67% in series [5] (test time 60 days) and 1.99% in series [5] (test time 90 days).

`CCOC(=O)[C@H](C)C[C@@H](Cc1ccc(-c2ccccc2)cc1)NC(=O)CCC(=O)O` [AHU-377 potassium salt]: the main peak purity in series [2] (setting [6]) was 93.63%; in series [2] (setting [7]) it was 93.31%; in series [2] (setting [8]), 93.28%; in series [2] (setting [9]) it was 94.11%; in series [2] (setting [10]), 94.05%; in series [2] (setting [11]), 93.37%. Further, the decrease of purity amounted to 0.35% in series [2] and 0.74% in series [3]. In series [1], the “hygroscopicity (in words)” value was “highly hygroscopic”. Moreover, the “solid form (in words)” value in series [1] is given as “failed to exhibit a good solid form”.

With `CCOC(=O)C(C)CC(Cc1ccc(-c2ccccc2)cc1)NC(=O)CCC(=O)O` (stereo not shown) [crystalline form I of the compound of formula (A)], the change of hygroscopicity result in series [4] (DVS) is “do not change much”. For the same compound, in series [1], the “hygroscopicity compared with AHU-377 sodium salt and AHU-377 potassium salt” value was “significantly more hygroscopic”.

In the case of `CCOC(=O)C(C)CC(Cc1ccc(-c2ccccc2)cc1)NC(=O)CCC(=O)O` [Compound of formula (A), ammonium 4-((2S,4R)-1-([1, l′-biphenyl]-4-yl)-5-ethoxy-4-methyl-5-oxopentan-2-yl)amino)-4-oxobutanoate], the “stability compared with the potassium salt and the sodium salt of AHU-377” value in series [2] is “far superior”. Besides, the main peak purity in series [2] (setting [6]) is 99.82%; in series [2] (setting [7]) it was 99.80%; in series [2] (setting [8]), 99.82%; in series [2] (setting [9]) it was 99.82%; in series [2] (setting [10]), 99.68%; in series [2] (setting [11]) it was 99.58%. Besides, the decrease of purity entry was “almost unchanged” in series [2] and 0.24% in series [3]. Moreover, the “stability compared with the organic ammonium salt of AHU-377” value in series [2] (by comparison in the same experiment) was “superior”. In series [4] (DVS, 0 to 95% relative humidity, FIG. 26), the hygroscopicity entry is recorded as “less than 2%”.

In the case of `CCOC(=O)C(C)CC(Cc1ccc(-c2ccccc2)cc1)NC(=O)CCC(=O)O` (stereo not shown) [crystalline form II], in series [4] (DVS), the change of hygroscopicity result is on record as “changes very little”.
